According to paper PMC7876106 (Scientific Reports, 2021):

How the values were obtained:
[1] = tested on: TERRA in U2OS cells; test: TERRA levels by RNA dot blot in U2OS cells; format: cell-based; details: ALT positive U2OS cells, 2 μM, 2 days
Method: LOX human melanoma cells[74],[101] were grown in complete RPMI (high glucose RPMI supplemented with 10% heat inactivated FBS, 100 I.U./mL Penicillin, and 100 μg/mL Streptomycin (Corning)). LOX cells inducibly expressing TRF2∆B protein were generated by lentiviral transduction. Cells were infected with lentiviral particles containing pInducer10L and pIND-MYC-TRF2∆B, and single cell clonal colonies were selected in 1 µg/mL puromycin. N-terminally Myc-tagged TRF2∆B protein was expressed in stable lines by induction with 1 µg/ml doxycycline at indicated days. Due to the instability of doxycycline in the culture, the culture medium will be replaced with fresh doxycycline every 2 days. […]
Homogenous Time Resolved Fluorescence (HTRF) assay
All material including peptide, nucleic acids and compounds were dissolved in buffer containing 20mM HEPES pH7.5 150mM KCl. […] The plate was incubated at room temperature for 30 minutes, following by adding 5µL of streptavidin-Tb-cryptate (Cisbio, PerkinElmer) and the plate was then incubated at room temperature for another 30 minutes before measured by EnVision plate reader (330/520 nm). […] The curves were analyzed using Prism 8.0. […]
Total RNA was isolated as previously described by using TRIzol reagent (Invitrogen) 1. […] RNA concentration was determined by Nanodrop-2000 (ThermoFisher). […]

[2] = target: G4 TeloDNA; test: FP assay, compound binding to 5′ fluorescein-labeled TeloDNA; details: 10 nM fluorescein-labeled probe, 3 independent experiments
Method: All the nucleic acids, peptides and chemicals were dissolved in buffer containing 20 mM HEPES pH7.5, 150 mM salt (KCl, NaCl, LiCl) at the stock concentration of 1 mM. For peptide and nucleic acid interactions, 25μL of each nucleic acids with a sequential twofold dilutions starting from 50 μM was added into each well of 96-well plate followed by adding 25μL of 10 nM FITC labeled TRF2 peptide. For compounds and nucleic acid interactions, 20μL of each compounds with a sequential twofold dilutions starting from 50 μM were added into each well of 96-well plate followed by adding 5μL of 20 ng/mL tRNA and 25μL of 10 nM FAM labeled nucleic acids. For inhibition assay, 5μL FITC labeled TRF2 GAR peptide (10 nM final concentration) and 10 μL oligos (5 μM final concentration) were mixed, followed by adding 5μL of each compound with a sequential twofold dilutions starting from 50 μM into each well of 384-well plate. All components were mixed thoroughly, and the plate was incubated at room temperature for 1 h before placing in an Envision Plate Reader for reading at 495/520 nm. All data curves were fitted using Prism 8.0.

[3] = tested on: TERRA (unlabelled) (RNA, G4) UUAGGGUUAGGGUUAGGGUUAGGG; test: fluorescence polarization, displacement of TRF2 GAR peptide; details: 150 mM KCl, NaCl or LiCl (salt not specified); 20 mM HEPES; 20 mM HEPES pH 7.5, room temperature; FITC-TRF2 GAR peptide 10 nM displaced; 5 μM oligo

Row | Structure (SMILES) | TERRA levels in U2OS cells [1] | EC50 [2] [µM] | IC50 [3] [µM]
1 | CCc1c(C)c2cc3nc(cc4nc(cc5c(CC)c(C)c(cc1[nH]2)n5C)C(C)=C4CCC(=O)O)C(CCC(=O)O)=C3C [NMM, N-methyl mesoporphyrin IX] | reduced TERRA levels | 4.8 | 0.42
2 | CN(C)c1ccc(Nc2c3ccc(NC(=O)CCN4CCCC4)cc3nc3cc(NC(=O)CCN4CCCC4)ccc23)cc1 [BRACO-19] | reduced TERRA levels | 3.9 | 0.24
